Patent US20100075907A1, “NEUROMEDIN U RECEPTOR AGONISTS AND USES THEREOF” (priority 2006, published 2010)
No end group written: not given here. *: point of attachment. Palmitoyl = CCCCCCCCCCCCCCCC(=O)*

How the values were obtained:
Format in all cases: cell-based
[1] = target: T1, mouse NMUR1-ATG (Mus musculus, UniProt O55040); assay: FLIPR calcium mobilization assay, mouse NMUR1-ATG; parameters: expressed in transfected cells; host or cells: FLP-In CHO or HEK-293 FLP-In cells (pcDNA5); conditions: mouse NMUR1-ATG; for % Activity: maximum response at 1 μM compared to hNMU-25
T1 sequence (O55040 1-428): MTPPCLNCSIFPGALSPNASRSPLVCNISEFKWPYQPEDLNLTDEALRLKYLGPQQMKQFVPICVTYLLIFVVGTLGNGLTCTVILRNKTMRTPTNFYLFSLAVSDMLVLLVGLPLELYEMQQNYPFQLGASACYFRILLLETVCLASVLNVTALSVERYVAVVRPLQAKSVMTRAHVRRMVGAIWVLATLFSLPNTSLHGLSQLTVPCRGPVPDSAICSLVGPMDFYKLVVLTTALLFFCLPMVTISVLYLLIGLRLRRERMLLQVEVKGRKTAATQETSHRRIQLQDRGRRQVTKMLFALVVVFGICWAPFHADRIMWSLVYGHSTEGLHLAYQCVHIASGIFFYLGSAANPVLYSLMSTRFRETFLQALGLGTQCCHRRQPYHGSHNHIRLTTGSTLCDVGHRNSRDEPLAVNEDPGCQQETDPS
Text: (§1) Human, mouse or rat cDNAs encoding NMUR1 or NMUR2 (as described in Howard et al. Nature 406: 70-74 (2000) were subcloned in pcDNA5 (Invitrogen) and transfected into FLP-In CHO cells and HEK-293 FLP-In cells purchased from Invitrogen (Carlsbad, Calif.) using lipofectamine (Invitrogen). The Flp-In system allows integration and expression of a particular gene of interest at a specific genomic location utilizing the Flp recombinase from yeast. The transfected cells were selected by growth in medium containing 200 μg/mL hygromycin (Invitrogen). Populations were frozen at early passage numbers, and these stocks were used for further studies. Stable clones that expressed the mRNAs were identified functionally by FLIPR as well as by RT-PCR. […] Two different rodent NMUR1 cell lines were thus generated: one with the codon as predicted from the genomic databases and another cell line with an engineered methionine (ATG) as the start codon. Additionally, stable cell lines expressing the human receptors were generated in HEK-293/aeq17 cells which stably express the aequorin gene under the CMV promoter. The human NMUR2 cDNA was cloned into pcDNA3.1 and human NMUR1 was subcloned into pIRES-puro (Clontech, Mountain View, Calif.), after transfection cells were selected in media containing G418 and either hygromycin (NMUR2) or puromycin (NMUR1).
(§2) The NMU receptors signal primarily through Gαq/11 proteins; therefore calcium mobilization assays can be utilized for functional activity.
(§3) Stable cell lines expressing human and or rodent NMUR1 or human NMUR2 receptors were plated at a density of 12,000 cells per well overnight on poly-lysine coated 384-well black-walled plates. The following day, the media was removed from the plates and the cells were subsequently loaded with Fluo-3 (Molecular Probes), a calcium sensitive dye, diluted in FLIPR buffer (1× Hank's buffered saline containing 20 mM HEPES, 0.1% BSA, 2.5 mM probenecid (Sigma) and 1.6 mM TR40). All reagents are from Invitrogen unless otherwise noted. Peptide stocks were resuspended in DMSO at a stock concentration of 2 mM and diluted in FLIPR buffer on the day of the experiment to a 4 μM working stock solution.
(§4) After a 90 minute incubation at room-temperature, cell plates were loaded onto a FLIPR (Molecular Devices) to monitor cellular fluorescence (excitation=488 nm; emission=540 nm) before and after compound/peptide addition. Eight to twelve point dose responses were tested on NMUR-expressing cell lines using FLIPR with 1 μM peptide as the highest dose. The response after peptide addition was taken as the maximum fluorescence units minus the fluorescence immediately prior to stimulation for each well. EC50 values were calculated using GraphPad Prism (San Diego, Calif.) software.
(§5) In vitro responses of Neuromedin U receptor agonists (NMU1 to NMU25) in the FLIPR assay for human (Table 3), mouse (Table 4) and rat (Table 5) NMUR1 and NMUR2. EC50s are reported in nM values. Percent activity refers to the maximum response at 1 μM compared to the hNMU-25 response at the same concentration. NT=not tested.

[2] = target: rat NMUR2 (Rattus norvegicus, UniProt Q9ESQ4); assay: FLIPR calcium mobilization assay, rat NMUR2; parameters: expressed in transfected cells; host or cells: FLP-In CHO or HEK-293 FLP-In cells (pcDNA5); conditions: rat NMUR2; for EC50: FLIPR; for % Activity: maximum response at 1 μM compared to hNMU-25
Text: as §1, §2, §3, §4, §5

[3] = target: hNMUR2 (Homo sapiens, UniProt Q9GZQ4); assay: FLIPR calcium mobilization assay, human NMUR2; parameters: expressed in transfected cells; host or cells: FLP-In CHO or HEK-293 FLP-In cells (pcDNA5); HEK-293/aeq17 lines (pcDNA3.1) were also made; conditions: human NMUR2; for EC50: FLIPR; for % Activity: maximum response at 1 μM compared to hNMU-25
[4] = target: T2, hNMUR1 (Homo sapiens, UniProt Q9HB89); assay: FLIPR calcium mobilization assay, human NMUR1; parameters: expressed in transfected cells; host or cells: FLP-In CHO or HEK-293 FLP-In cells (pcDNA5); HEK-293/aeq17 lines (pIRES-puro) were also made; conditions: human NMUR1; for EC50: FLIPR; for % Activity: maximum response at 1 μM compared to hNMU-25 response at same concentration
T2 sequence (Q9HB89 1-426): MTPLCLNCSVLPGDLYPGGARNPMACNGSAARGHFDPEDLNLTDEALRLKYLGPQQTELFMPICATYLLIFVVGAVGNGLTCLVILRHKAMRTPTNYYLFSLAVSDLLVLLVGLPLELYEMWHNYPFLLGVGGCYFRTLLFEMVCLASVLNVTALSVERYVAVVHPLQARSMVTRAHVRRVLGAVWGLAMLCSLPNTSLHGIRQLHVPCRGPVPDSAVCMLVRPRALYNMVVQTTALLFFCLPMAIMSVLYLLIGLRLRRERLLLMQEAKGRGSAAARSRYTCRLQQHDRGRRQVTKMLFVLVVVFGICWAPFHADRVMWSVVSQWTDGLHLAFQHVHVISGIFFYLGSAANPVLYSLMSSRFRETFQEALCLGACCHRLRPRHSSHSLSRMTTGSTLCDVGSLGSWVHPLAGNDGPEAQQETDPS

Chain of rat NMUR2 (Q9ESQ4 whole entry): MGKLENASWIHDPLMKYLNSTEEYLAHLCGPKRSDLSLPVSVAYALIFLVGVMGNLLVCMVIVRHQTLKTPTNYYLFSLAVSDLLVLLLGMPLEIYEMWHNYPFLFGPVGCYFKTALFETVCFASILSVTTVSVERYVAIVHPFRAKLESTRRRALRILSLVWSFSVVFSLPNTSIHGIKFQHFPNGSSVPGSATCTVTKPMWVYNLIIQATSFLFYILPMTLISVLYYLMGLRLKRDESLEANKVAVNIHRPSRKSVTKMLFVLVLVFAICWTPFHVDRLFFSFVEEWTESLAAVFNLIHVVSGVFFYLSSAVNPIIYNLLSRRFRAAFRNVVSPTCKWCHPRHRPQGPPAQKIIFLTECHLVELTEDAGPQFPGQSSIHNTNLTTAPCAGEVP
Chain of hNMUR2 (Q9GZQ4 whole entry): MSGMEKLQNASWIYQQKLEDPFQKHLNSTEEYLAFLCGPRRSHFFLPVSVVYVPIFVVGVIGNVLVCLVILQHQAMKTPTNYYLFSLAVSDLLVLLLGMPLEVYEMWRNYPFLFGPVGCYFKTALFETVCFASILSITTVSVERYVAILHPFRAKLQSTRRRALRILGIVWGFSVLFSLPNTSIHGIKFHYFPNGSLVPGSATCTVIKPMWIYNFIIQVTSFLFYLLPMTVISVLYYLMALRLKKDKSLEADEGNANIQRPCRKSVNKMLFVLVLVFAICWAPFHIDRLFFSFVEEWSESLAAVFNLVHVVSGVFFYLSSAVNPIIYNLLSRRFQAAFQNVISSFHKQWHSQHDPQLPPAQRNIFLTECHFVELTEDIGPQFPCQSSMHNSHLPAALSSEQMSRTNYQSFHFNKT

| Substance | % Activity [1] [%] | EC50 [2] [nM] | % Activity [2] [%] | EC50 [3] [nM] | % Activity [3] [%] | EC50 [4] [nM] | % Activity [4] [%] | EC50 ([1]; FLIPR) [nM] |
| --- | --- | --- | --- | --- | --- | --- | --- | --- |
| Ac-FRVDEEFQSPFASQSRGYFLFRPRN-NH2 [NMU2] | 100 | 2.2 | 100 | 2.6 | 97.4 | 5.5 | 99.0 |  |
| Ac-FRVDEEFQSPFASQSRPYFLFRPRN-NH2 [NMU5] | 100 |  | 100 |  | 98.1 |  | 98.1 |  |
| GYFLFRPRN-NH2 [NMU3] | 100 |  | 100 |  | 100 |  | 98.9 |  |
| H-FRVDEEFQSPFASQSRPYFLFRPRN-NH2 [NMU4] | 100 |  | 100 | 2.6 | 100 |  | 97.0 |  |
| Pam-C2FRVDEEFQSPFASQSRGYFLFRPRN-CONH2 ({Palmitoyl-C(PEG 40 kDa)}-FRVDEEFQSPFASQSRGYFLFRPRN-NH2) [NMU25, Pam = palmitoyl; C2 = Cys(PEG)240 kDa] |  | 37.8 | 96.4 | 44.1 | 98.8 | 168 | 83.0 | 10.2 |
